Reference: PMC8509705, “Liquid-Liquid Chromatography Separation of Guaiane-Type Sesquiterpene Lactones from Ferula penninervis Regel & Schmalh. and Evaluation of Their In Vitro Cytotoxic and Melanin Inhibitory Potential” (International Journal of Molecular Sciences, 2021)
≈ marks a conversion by molar mass, not a printed value.

Experiments:
[1] = tested on: androgen-dependent prostate cancer LNCaP cells; assay: Neutral red uptake cell viability assay, LNCaP cells; assay type: cell-based; conditions: Homo sapiens, 48 h; for viability at 50 µg/mL: 50 μg/mL, vs DMSO control; for IC50: neutral red uptake
Description: (§1) Figure 4 Concentration-response curves showing the effect of Ferula penninervis methanolic root extract against gastrointestinal cancer cells (A), prostate cancer cells (B), skin cancer cells (C) and non-cancer cells (D) and the effect of isolated sesquiterpene lactones against prostate cancer LNCaP cells (E) and prostate epithelial PNT2 cells (F). Cells were seeded in 96-well plates (3 × 10^3/well) and treated with increasing concentrations of extract (12.5–200 μg/mL) or sesquiterpene lactones (3.125–50 μg/mL); after 48 h, the cell viability was evaluated using neutral red uptake assay. Data are expressed as percentage change in viability in comparison to the vehicle (DMSO) treated control group. Each point represents the mean ± S.E.M. of three independent experiments performed in triplicates.
Androgen-dependent prostate cancer (derived from lymph node metastasis) LNCaP (ATCC® CRL-1740), androgen-insensitive prostate cancer (derived from brain metastasis) DU145 (ATCC® HTB-81), androgen-insensitive prostate cancer (derived from bone metastasis) PC3 (ATCC® CRL-1435) and prostate epithelial PNT2 (ECACC® 95012613) cell lines were kindly provided by Dr. Vera Knäuper, School of Dentistry, Cardiff University (Cardiff, UK), whereas human colorectal carcinoma Caco-2 (ATCC® HTB-37) cell line was provided by Dr. Konrad Szychowski (University of Information Technology and Management, Rzeszów, Poland). Human gastric cancer (derived from liver metastasis) N87 (ATCC® CRL-5822), human colorectal cancer HT-29 (ATCC® HTB-38), human malignant melanoma A375 (ATCC CRL-1619), human squamous cell cancer SCC-15 (ATCC® CRL-1623) cell lines, murine melanoma B16F10 (ATCC® CRL-6475) and human skin BJ fibroblast (ATCC® CRL-2522) cell lines were purchased from LGC Standards (Łomianki, Poland), whilst immortalized human keratinocyte HaCaT cell lines were bought from Cell Lines Service (CLS) GmbH (Eppelheim, Germany).
LNCaP, PNT2 and N87 cells were grown in RPMI-1640 medium; PC3 cells were cultured in Ham’s F12; DU145, Caco-2 and BJ cells were maintained in EMEM. SCC-15 cell line was grown in DMEM:F12, whilst B16F10, HaCaT and HT-29 cell lines were maintained in DMEM. All conditioned media were supplemented with 10% FBS for all cell lines, except for Caco-2 cells which were grown in EMEM supplemented with 20% FBS. The cells were cultured at 37 °C in a humidified atmosphere with 5% CO2.
(§2) Neutral red uptake (NRU) assay was performed as described by Repetto et al.. Briefly, cells were seeded in 96-well plates (3 × 10^3 cells/well) and grown overnight. The cells were then treated with increasing concentrations of F. penninervis crude extract (12.5–200 µg/mL) and isolated compounds (3.125–50 µg/mL) or the positive control 5-FU (1 µg/mL). The control cells were grown in appropriate culture medium containing equal volume of the used solvent (DMSO). After 48 h, the cells were incubated for 3 h with neutral red solution (33 µg/mL) in conditioned medium containing 1% FBS. […] The absorbance of the released neutral red was measured at λ = 540 nm using FilterMax F5 microplate reader and corrected by the absorbance at λ = 620 nm. The mean measured value for the lysate from control cells was set as 100% cellular viability and used to calculate the percentage of viable cells following extracts treatment.
(§3) All experiments were performed in triplicate and the results were expressed as mean ± standard error of mean (SEM). […]

B16F10 cells [2] = tested on: B16F10 cells; design: method as in doi:10.1186/s13765-019-0468-7; conditions: 3 and 6 μM; cited from earlier work
B16F10 cells [3] = conditions: cited from earlier work
[4] = tested on: αMSH-stimulated murine melanoma B16F10 cells; assay: Melanin release in conditioned medium of αMSH-stimulated B16F10 cells; assay type: cell-based; conditions: αMSH 10 nM, 72 h; for melanin release in the medium: 10 μg/mL
Description: (§4) Figure 5 Influence of Ferula penninervis root extract and isolated sesquiterpene lactones on melanin release in conditioned medium (A), melanin content in cell lysate (B) and cell viability (C) in α-MSH-stimulated murine melanoma B16F10 cells. B16F10 cells were seeded in 6-well plates (0.5 × 10^5/well) and treated with extract (100 μg/mL) or sesquiterpene lactones (10 μg/mL); melanin production was stimulated with α-MSH (10 nM). Kojic acid (100 μg/mL) was used as positive control. After 72 h, the melanin release/content and cell viability were assessed. Data are expressed as the percentage of melanin release/content in comparison with α-MSH stimulated control cells (α-MSH+) (A,B) or as percentage change in viability in comparison to the vehicle (DMSO) treated control group (C). Each point represents the mean ± S.E.M. of three independent experiments performed in triplicates; # p < 0.001 vs. non-stimulated control cells (αMSH-); ** p < 0.01; *** p < 0.001 vs. αMSH+ cells.
B16F10 cells were plated in 6-well plates (0.5 × 10^5 cells/well) and grown overnight. The cells were treated with F. penninervis crude extract (100 µg/mL), isolated compounds (10 µg/mL) or the positive control kojic acid (100 μg/mL). Melanin production was stimulated with α-MSH (10 nM). Following 72 h, the conditioned medium and cell pellets were collected. Cell pellets were dissolved in 1 N NaOH and incubated for 2 h at 80 °C. Conditioned media and cell lysates were then transferred to a 96-well plate and the absorbance was measured at λ = 405 nm using FilterMax F5 microplate reader. The content of protein in cell lysates was establish using Bradford assay. The melanin released in the conditioned medium and the melanin content in cell lysates (μg melanin/mg protein) were calculated with the help synthetic melanin calibration curves. The melanin release/content was expressed as the percentage of melanin release/content in comparison with α-MSH stimulated control cells without the tested samples.

MCF-7 cells = tested on: MCF-7 cells; design: method as in PMID 24320993; conditions: cited from earlier work
[5] = tested on: erythroleukemia K562 cells; design: method as in PMID 24320993; conditions: cited from earlier work
[6] = tested on: αMSH-stimulated murine melanoma B16F10 cells; assay: Melanin content in cell lysate of αMSH-stimulated B16F10 cells; assay type: cell-based; conditions: 100 μg/mL, αMSH 10 nM, 72 h
Description: as §4, with “Each point represents the mean ± S.E.M. of three independent experiments performed in triplicates; # p < 0.001 vs. non-stimulated control cells (αMSH-); ** p < 0.01; *** p < 0.001 vs. αMSH+ cells.” left out
B16F10 cells were plated in 6-well plates (0.5 × 10^5 cells/well) and grown overnight. […] Conditioned media and cell lysates were then transferred to a 96-well plate and the absorbance was measured at λ = 405 nm using FilterMax F5 microplate reader. […] The melanin released in the conditioned medium and the melanin content in cell lysates (μg melanin/mg protein) were calculated with the help synthetic melanin calibration curves. The melanin release/content was expressed as the percentage of melanin release/content in comparison with α-MSH stimulated control cells without the tested samples.

[7] = tested on: prostate epithelial PNT2 cells; assay: Neutral red uptake cell viability assay, PNT2 cells; assay type: cell-based; conditions: 48 h
Description: as §1, with “triplicates. […]” for “triplicates.”
Neutral red uptake (NRU) assay was performed as described by Repetto et al.. […] The absorbance of the released neutral red was measured at λ = 540 nm using FilterMax F5 microplate reader and corrected by the absorbance at λ = 620 nm. The mean measured value for the lysate from control cells was set as 100% cellular viability and used to calculate the percentage of viable cells following extracts treatment.
as §3

[8] = tested on: αMSH-stimulated murine melanoma B16F10 cells; assay: Neutral red uptake viability at 72 h in αMSH-stimulated B16F10 cells; assay type: cell-based; conditions: extract 100 μg/mL, lactones 10 μg/mL, kojic acid 100 μg/mL, vs αMSH- cells
Description: To evaluate the effects of F. penninervis methanolic root extract and its isolated guaiane-type sesquiterpene lactones on the melanin synthesis and release, the melanin assay was carried out. For this purpose, the production of melanin in murine melanoma B16F10 cells was stimulated with αMSH. […] Furthermore, to exclude the possibility that the observed inhibitory effects on the melanin production might have resulted through a reduced number of viable cells, neutral red uptake assay at 72 h was performed (Figure 5C and Figure S17). […] To our knowledge, there are no previous studies reporting the melanin production inhibitory potential of Ferula genus or isolated constituents. Nevertheless, the anti-melanogenic effects of different phytochemicals were repeatedly evidenced in various cell-based assays.
as §4, §2

O=c1[nH]cc(F)c(=O)[nH]1 [5-FU, 5-Fluorouracil, reference compound] showed a viability at 5 µg/mL ([1]; positive control at 5 μg/mL) of 50.6 ± 3.28%.
For COc1cc(/C=C/C(=O)N2CCC=CC2=O)cc(OC)c1OC [Piperlongumine], the “effect on cell growth” value (B16F10 cells [2]) is listed as “no inhibitory effects on the cell growth” and the total melanin production (B16F10 cells [3]; 3 and 6 μM) is listed as “significantly reduced the total melanin production”.
With CC=C(C)C(=O)OC1CC(C)=C2C(=O)C=C(C)C2C2OC(=O)C(C)(OC(=O)C(C)C)C12 (stereo not drawn) [daucoguaianolactone F, daucoguainolactone F] the “melanin release in the medium” value [4] was “inactive”.
For C=C1C(=O)O[C@@H]2[C@H]1CC[C@]1(C)[C@H](OC(=O)/C(C)=C/C)C=CC(=C)[C@@H]21 [dehydrooopodin], the IC50 (MCF-7 cells) is given as 15 µM and the IC50 [5] is given as 5 µM.
With CC1=CC(=O)C2=C(C)C[C@H](OC(=O)C(C)C)[C@@H]3[C@@H](OC(=O)[C@@]3(C)OC(=O)C(C)C)[C@H]12 [ferupennin Q, 2-oxo-8α,11α-diisobutyroyloxy-5βH,6αH,7αH-gua-1(10),3-diene-6,12-olide] the “melanin release in the medium” value [4] was “inactive”.
For O=c1cc(CO)occ1O [kojic acid, reference compound], the “melanin release in the conditioned medium” value ([4]; 100 μg/mL) was 35.88 ± 3.45 % of αMSH+ control cells and the “melanin content in the cell lysate” value [6] was “but not the melanin content”.
In the case of C/C=C(/C)C(=O)O[C@H]1CC(C)=C2C(=O)C=C(C)[C@H]2[C@@H]2OC(=O)[C@@](C)(OC(C)=O)[C@@H]21 [laferin], the cell survival ([7]; 50 µg/mL (highest tested concentration)) is reported as 53.85 ± 1.71%, the “viability of B16F10 cells” value [8] is reported as “without influencing the viability of B16F10 cells” and the viability at 50 µg/mL [1] is reported as 14.4 ± 1.69%. For the same compound, the IC50 [1] was 23.3 µg/mL (≈ 57.8 µM).
In the case of C=C(C)C(=O)O[C@H]1CC(C)=C2C(=O)C=C(C)[C@H]2[C@@H]2OC(=O)[C@@](C)(OC(=O)C(C)C)[C@@H]21 [oferin], the “viability of B16F10 cells” value [8] is reported as “without influencing the viability of B16F10 cells”.
For C=C(C)C(=O)O[C@H]1CC(C)=C2C(=O)C=C(C)[C@H]2[C@@H]2OC(=O)[C@@](C)(OC(C)=O)[C@@H]21 [olgin], the “melanin release in the medium” value [4] was 40.67–65.48 % of αMSH+ control cells, the “effect on viability of PNT2 control cells” value ([7]; 3.125–50 μg/mL) was “did not significantly affect the viability” and the “viability of B16F10 cells” value [8] was “without influencing the viability of B16F10 cells”. It also gave a viability at 50 µg/mL [1] of 43.1 ± 3.52% and an IC50 [1] of 31 µg/mL (≈ 79.9 µM).
For C=C(C)C(=O)O[C@H]1CC(C)=C2C(=O)C=C(C)[C@H]2[C@@H]2OC(=O)[C@@](C)(OC(=O)C(=C)C)[C@@H]21 [olgoferin], the “viability of B16F10 cells” value [8] was “without influencing the viability of B16F10 cells”.
In the case of C[C@@H]1O[C@@H](O[C@@H]2[C@@H](O)[C@H](O)[C@@H](CO)O[C@H]2c2c(O)cc(O)c3c(=O)cc(-c4ccc(O)cc4)oc23)[C@H](O)[C@H](O)[C@H]1O [vitexin-2ʺ-O-rhamnoside], the “decrease of intracellular melanin production compared to untreated cells” value (B16F10 cells [3]; 5 μM) is given as “threefold”.
